Measurements as given in ChEMBL document CHEMBL5634141 (Eur J Med Chem, 2023).
Calls of active or inactive are those of the source. The rule behind the calls is not given here.

How the values were obtained:
[1] = system: NCI-H358; test: Induction of apoptosis in human NCI-H358 cells assessed as late apoptotic cells at 100 nM incubated for 48 hrs by Annexin V-FITC staining based flow cytometry analysis (reference value: 5.20 %); type: functional
[2] = system: NCI-H358; test: Induction of apoptosis in human NCI-H358 cells assessed as necrotic cells at 300 nM incubated for 48 hrs by Annexin V-FITC staining based flow cytometry analysis (reference value: 1.62 %); type: functional
[3] = system: MIA PaCa-2; test: Induction of apoptosis in human MIA PaCa-2 cells assessed as viable cells at 300 nM incubated for 48 hrs by Annexin V-FITC staining based flow cytometry analysis (reference value: 91.5 %); type: functional; conditions: read-out: Activity
[4] = Toxicity in BALB/c nude mouse xenografted with human MIA PaCa-2 cells at 10 to 30 mg/kg, ip measured after 16 days; type: organism-based; conditions: in vivo, 384 h, dose 10-30 mg/kg, time 16 day
[5] = system: NCI-H358; test: Antiproliferative activity against human NCI-H358 cells expressing KRAS G12C mutant assessed as relative cell viability at 30 nM incubated for 72 hrs in presence of MK-2206 by CCK-8 assay; type: functional; conditions: read-out: Activity
[6] = system: von Hippel-Lindau disease tumor suppressor/GTPase KRas (Homo sapiens), P01116+P40337 [G12C]; test: PROTAC activity at VHL/KRAS G12C mutant in human MIA PaCa-2 cells assessed as induction of protein degradation in presence of MLN4924 by Western blot analysis; type: cell-based
[7] = Tmax in ICR mouse at 30 mg/kg, ip measured after 24 hrs by LC-MS/MS analysis; type: ADME, organism-based; conditions: in vivo
[8] = system: von Hippel-Lindau disease tumor suppressor/GTPase KRas (Homo sapiens), P01116+P40337 [G12C]; test: PROTAC activity at VHL/KRAS G12C mutant in human NCI-H358 cells assessed as induction of protein degradation at 100 nM preincubated with MG132 for 6 hrs followed by compound addition and measured after 48 hrs by Western blot analysis; type: cell-based
[9] = system: MIA PaCa-2; test: Induction of apoptosis in human MIA PaCa-2 cells assessed as early apoptotic cells at 30 nM incubated for 48 hrs by Annexin V-FITC staining based flow cytometry analysis (reference value: 1.55 %); type: functional
[10] = system: NCI-H358; test: Induction of apoptosis in human NCI-H358 cells assessed as viable cells at 100 nM incubated for 48 hrs by Annexin V-FITC staining based flow cytometry analysis (reference value: 91.6 %); type: functional; conditions: read-out: Activity
[11] = AUC (0 to t) in ICR mouse at 30 mg/kg, ip measured after 24 hrs by LC-MS/MS analysis; type: ADME, organism-based; conditions: in vivo
[12] = Half life in ICR mouse at 2 mg/kg, iv measured after 24 hrs by LC-MS/MS analysis; type: ADME, organism-based; conditions: in vivo
[13] = system: MIA PaCa-2; test: Antiproliferative activity against human MIA PaCa-2 cells expressing KRAS G12C mutant assessed as relative cell viability at 30 nM incubated for 72 hrs in presence of naporafenib by CCK-8 assay; type: functional; conditions: read-out: Activity
[14] = system: SW837; test: Antiproliferative activity against human SW837 cells expressing KRAS G12C mutant assessed as relative cell viability at 30 nM incubated for 72 hrs by CCK-8 assay; type: functional; conditions: read-out: Activity
[15] = system: Calu-1; test: Antiproliferative activity against human Calu-1 cells expressing KRAS G12C mutant assessed as relative cell viability at 30 nM incubated for 72 hrs in presence of daclolisib by CCK-8 assay; type: functional; conditions: read-out: Activity
[16] = system: MIA PaCa-2; test: Antiproliferative activity against human MIA PaCa-2 cells expressing KRAS G12C mutant assessed as reduction of cell growth by measuring fold decrease in IC50 incubated for 72 hrs in presence of Linsitinib by CCK-8 assay; type: functional
[17] = Cmax in ICR mouse at 2 mg/kg, iv measured after 24 hrs by LC-MS/MS analysis; type: ADME, organism-based; conditions: in vivo
[18] = system: MIA PaCa-2; test: Induction of apoptosis in human MIA PaCa-2 cells assessed as early apoptotic cells at 100 nM incubated for 48 hrs by Annexin V-FITC staining based flow cytometry analysis (reference value: 1.55 %); type: functional
[19] = system: von Hippel-Lindau disease tumor suppressor/GTPase KRas (Homo sapiens), P01116+P40337 [G12C]; test: PROTAC activity at VHL/KRAS G12C mutant in human MIA PaCa-2 cells assessed as inhibition of ERK phosphorylation at 100 nM incubated for 1 to 8 days by Western blotting analysis; type: cell-based; conditions: time 1-8 day
[20] = system: HepG2; test: Antiproliferative activity against human HepG2 cells expressing KRAS assessed as inhibition of cell growth incubated for 72 hrs by CCK-8 assay; type: functional, cell-based; conditions: HepG2, 72 h
[21] = Cytotoxicity against HEK293T cells assessed as inhibition of cell growth incubated for 72 hrs by CCK-8 assay; type: toxicity, cell-based, HEK-293T; conditions: human
[22] = system: MIA PaCa-2; test: Antiproliferative activity against human MIA PaCa-2 cells expressing KRAS G12C mutant assessed as reduction of cell growth by measuring fold decrease in IC50 incubated for 72 hrs in presence of AZD4573 by CCK-8 assay; type: functional
[23] = system: von Hippel-Lindau disease tumor suppressor/GTPase KRas (Homo sapiens), P01116+P40337 [G12C]; test: PROTAC activity at VHL/KRAS G12C mutant in human NCI-H358 cells assessed as induction of protein degradation at 100 nM incubated for 48 hrs followed by compound washout and measured after 48 hrs by Western blotting analysis; type: cell-based
[24] = system: von Hippel-Lindau disease tumor suppressor/GTPase KRas (Homo sapiens), P01116+P40337 [G12C]; test: PROTAC activity at VHL/KRAS G12C mutant in human NCI-H358 cells assessed as induction of protein degradation at 100 nM preincubated with MLN4924 for 6 hrs followed by compound addition and measured after 48 hrs by Western blotting analysis; type: cell-based
[25] = system: von Hippel-Lindau disease tumor suppressor/GTPase KRas (Homo sapiens), P01116+P40337 [G12C]; test: Protac activity at VHL/KRAS G12C mutant in human MIA PaCa-2 cells assessed as induction of protein degradation in presence of VH032 by Western blot analysis; type: cell-based
[26] = system: SW837; test: Antiproliferative activity against human SW837 cells expressing KRAS G12C mutant assessed as relative cell viability at 30 nM incubated for 72 hrs in presence of crizotinib by CCK-8 assay; type: functional; conditions: read-out: Activity
[27] = Cmax in ICR mouse at 30 mg/kg, ip measured after 24 hrs by LC-MS/MS analysis; type: ADME, organism-based; conditions: in vivo
[28] = system: NCI-H358; test: Synergistic antiproliferative activity against human NCI-H358 cells expressing KRAS G12C mutant assessed as combination index at 30 nM incubated for 72 hrs in presence of selumetinib by CCK-8 assay; type: functional
[29] = system: NCI-H358; test: Synergistic antiproliferative activity against human NCI-H358 cells expressing KRAS G12C mutant assessed as combination index incubated for 72 hrs in presence of SHP099 by CCK-8 assay; type: functional
[30] = system: NCI-H358; test: Antiproliferative activity against human NCI-H358 cells expressing KRAS G12C mutant assessed as inhibition of cell growth at 100 nM incubated for 8 days by CCK-8 assay; type: functional, cell-based; conditions: time 8.0 day
[31] = Toxicity in BALB/c nude mouse xenografted with human MIA PaCa-2 cells assessed as change in body weight at 10 to 30 mg/kg, ip measured after 16 days; type: organism-based; conditions: in vivo, 384 h, dose 10-30 mg/kg, time 16 day
[32] = system: von Hippel-Lindau disease tumor suppressor/GTPase KRas (Homo sapiens), P01116+P40337 [G12C]; test: PROTAC activity at VHL/KRAS G12C mutant in human MIA PaCa-2 cells assessed as induction of protein degradation at 100 nM incubated for 48 hrs followed by compound washout by Western blotting analysis; type: cell-based
[33] = system: MIA PaCa-2; test: Induction of apoptosis in human MIA PaCa-2 cells assessed as viable cells at 100 nM incubated for 48 hrs by Annexin V-FITC staining based flow cytometry analysis (reference value: 91.5 %); type: functional; conditions: read-out: Activity

In the case of `C=CC(=O)N1CCN(c2nc(=O)n(-c3c(C)ccnc3C(C)C)c3nc(-c4c(F)cccc4OCC4CCN(CCCC(=O)N[C@H](C(=O)N5C[C@H](O)C[C@H]5C(=O)NCc5ccc(-c6scnc6C)cc5)C(C)(C)C)CC4)c(F)cc23)[C@@H](C)C1`, the Activity [1] is reported as 10%, the Activity [2] is reported as 1.7% and the viability at 0.3 µM [3] is reported as 66.4%. For the same molecule, the Activity [4] was “Non-Toxic”, the viability at 0.03 µM [5] was 0.36% and the Activity [6] was “inactive”. The Tmax [7] was 1.17 h, the Activity [8] was “inactive” and the Activity [9] was 2.66%. The viability at 0.1 µM [10] was 85.9%, the AUC(0-t) at 24 h [11] was 21000 ng·h/mL and the t1/2 [12] was 0.876 h. The viability at 0.03 µM [13] was 0.27%, the viability at 0.03 µM [14] was 0.77% and the viability at 0.03 µM [15] was 0.12%. The “fold change (FC)” value [16] was roughly 3, the Cmax [17] was 1170 ng/mL and the Activity [18] was 6.73%. For the same molecule, the Activity [19] was “Active”, the IC50 [20] was greater than 10 µM and the IC50 at 72 h [21] was greater than 10 µM. The “fold change (FC)” value [22] was roughly 9, the Activity [23] was “inactive” and the Activity [24] was “inactive”. For the same molecule, the Activity [25] was “inactive”, the viability at 0.03 µM [26] was 0.36% and the Cmax [27] was 6460 ng/mL. For the same molecule, the CI [28] was less than 1, the CI [29] was less than 1 and the Activity [30] was “Active”. For the same molecule, the Activity [31] was “Non-Toxic”, the Activity [32] was “Active” and the viability at 0.1 µM [33] was 75.7%.
